# Assay results as given in patent US7452885B2, “Amino-5-(6-membered)heteroarylimidazolone compounds and the use thereof for β-secretase modulation” (Wyeth, priority 2005, dated 2008).
# pIC50: −log10 of the molar value. Read-outs that look alike come from different tables or passages of the source.
# Key:
# [1] = target: human BACE1 (Homo sapiens, UniProt P56817); assay: Fluorescent kinetic assay, BACE-1 (Example 114); assay type: biochemical; conditions: for IC50: 10 nM human BACE1, 25 μM substrate WABC-6, 50 mM Na-Acetate pH 4.5, room temperature, read-out: BACE-1 (IC50 μM)
# Experimental: Evaluation of BACE-1 Binding Affinity of Test Compounds
# Fluorescent Kinetic Assays
# Dilution and mixing steps: total reaction volume: 100 μL
# 100 μM substrate dilution in 1×PBS was prepared, and
# Fluorescence Readings: Readings at λex 320 nm and εem 420 nm are taken every 40 sec for 30 min at room temperature and the linear slope for substrate cleavage rate (vi) determined.
# Chain of human BACE1 (P56817 46-501): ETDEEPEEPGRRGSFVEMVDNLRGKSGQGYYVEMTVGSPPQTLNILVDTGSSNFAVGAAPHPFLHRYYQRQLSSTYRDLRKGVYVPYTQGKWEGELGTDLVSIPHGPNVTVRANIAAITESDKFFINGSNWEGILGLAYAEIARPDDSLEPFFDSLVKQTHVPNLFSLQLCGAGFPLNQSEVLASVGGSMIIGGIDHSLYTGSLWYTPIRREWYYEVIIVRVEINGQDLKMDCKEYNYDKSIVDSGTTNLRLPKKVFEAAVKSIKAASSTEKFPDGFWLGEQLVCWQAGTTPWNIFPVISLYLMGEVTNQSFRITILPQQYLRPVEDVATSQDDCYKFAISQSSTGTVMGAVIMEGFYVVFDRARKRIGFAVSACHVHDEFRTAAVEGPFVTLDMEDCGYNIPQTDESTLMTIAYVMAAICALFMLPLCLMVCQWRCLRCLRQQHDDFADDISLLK
SMILES,melting point,pIC50 [1],IC50 [1]
CCc1cc(C2(c3ccc(F)c(-c4cnccc4F)c3)N=C(N)N(C)C2=O)cc(CC)n1 (stereo not drawn),92 to 100 °C,,
"CN1C(=O)C(c2ccccc2)(c2ccncc2)N=C1N (stereo not drawn) [Example 23, 2-Amino-3-methyl-5-phenyl-5-pyridin-4-yl-3,5-dihydro-4H-imidazol-4-one]",,< 6.00,
CN1C(=O)C(c2cccnc2)(c2cccc(-c3ccccc3)c2)N=C1N (stereo not drawn) [Example 27],212 to 214 °C,,0.11 to 1 µM
CN1C(=O)C(c2ccccc2)(c2cccnc2)N=C1N (stereo not drawn) [Example 28],205 to 206 °C,,> 1 µM
CN1C(=O)C(c2ccncc2)(c2cccc(-c3cc(F)cc(F)c3)c2)N=C1N (stereo not drawn) [Example 31],,7.00 to 8.00,
CN1C(=O)C(c2ccncc2)(c2cccc(-c3cccc(C(F)(F)F)c3)c2)N=C1N (stereo not drawn) [Example 32],234 °C,6.00 to 6.96,
COc1cncc(-c2cccc(C3(c4ccncc4)N=C(N)N(C)C3=O)c2)c1 (stereo not drawn) [Example 33],198 to 200 °C,7.00 to 8.00,
COc1cccc(-c2cccc(C3(c4ccncc4)N=C(N)N(C)C3=O)c2)c1 (stereo not drawn) [Example 34],,7.00 to 8.00,
CN1C(=O)C(c2ccncc2)(c2cccc(-c3cccc(O)c3)c2)N=C1N (stereo not drawn) [Example 35],263 to 265 °C,6.00 to 6.96,
CN1C(=O)C(c2ccncc2)(c2cccc(-c3cccc(CO)c3)c2)N=C1N (stereo not drawn) [Example 36],177 to 179 °C,6.00 to 6.96,
CN1C(=O)C(c2ccncc2)(c2cccc(-c3cccc(C(N)=O)c3)c2)N=C1N (stereo not drawn) [Example 37],188 to 190 °C,6.00 to 6.96,
CC(=O)c1cccc(-c2cccc(C3(c4ccncc4)N=C(N)N(C)C3=O)c2)c1 (stereo not drawn) [Example 38],218 to 220 °C,6.00 to 6.96,
COc1ccc(F)cc1-c1cccc(C2(c3ccncc3)N=C(N)N(C)C2=O)c1 (stereo not drawn) [Example 39],233 to 235 °C,7.00 to 8.00,
CN1C(=O)C(c2ccncc2)(c2cccc(-c3cccc(F)c3F)c2)N=C1N (stereo not drawn) [Example 40],,7.00 to 8.00,
CN1C(=O)C(c2ccncc2)(c2cccc(-c3cc(C#N)ccc3F)c2)N=C1N (stereo not drawn) [Example 41],213 to 215 °C,7.00 to 8.00,
CN1C(=O)C(c2ccncc2)(c2cccc(-c3cc(F)cnc3Cl)c2)N=C1N (stereo not drawn) [Example 42],120 to 122 °C,6.00 to 6.96,
CN1C(=O)C(c2ccncc2)(c2cccc(-c3cccnc3F)c2)N=C1N (stereo not drawn) [Example 43],,7.00 to 8.00,
CN1C(=O)C(c2ccncc2)(c2cccc(-c3cccnc3)c2)N=C1N (stereo not drawn) [Example 44],,7.00 to 8.00,
CN1C(=O)C(c2ccncc2)(c2cccc(-c3ccoc3)c2)N=C1N (stereo not drawn) [Example 45],113 to 115 °C,,
CN1C(=O)C(c2ccncc2)(c2cccc(-c3ccsc3)c2)N=C1N (stereo not drawn) [Example 46],217 to 219 °C,,
CN1C(=O)C(c2ccncc2)(c2cccc(-c3cc[nH]n3)c2)N=C1N (stereo not drawn) [Example 47],148 to 150 °C,< 6.00,

SMILES,melting point,pIC50 [1],IC50 [1]
CN1C(=O)C(c2ccncc2)(c2cccc(-c3ccn(C)n3)c2)N=C1N (stereo not drawn) [Example 48],199 to 201 °C,6.00 to 6.96,
COc1ncccc1-c1cccc(C2(c3ccncc3)N=C(N)N(C)C2=O)c1 (stereo not drawn) [Example 49],243 to 245 °C,6.00 to 6.96,
CN1C(=O)C(c2ccncc2)(c2cccc(-c3ccc(C#N)s3)c2)N=C1N (stereo not drawn) [Example 50],220 to 222 °C,6.00 to 6.96,
"CN1C(=O)C(c2ccncc2)(c2cccc(O)c2)N=C1N (stereo not drawn) [Example 51, 2-Amino-5-(3-hydroxyphenyl)-3-methyl-5-pyridin-4-yl-3,5-dihydro-4H-imidazol-4-one]",245 to 247 °C,,> 1 µM
"CCCOc1cccc(C2(c3ccncc3)N=C(N)N(C)C2=O)c1 (stereo not drawn) [Example 52, 2-Amino-3-methyl-5-(3-propoxyphenyl)-5-pyridin-4-yl-3,5-dihydro-4H-imidazol-4-one]",173 to 175 °C,,
CN1C(=O)C(c2ccncc2)(c2cccc(-c3cccc(F)c3)c2)N=C1N (stereo not drawn) [Example 53],,7.00 to 8.00,
CN1C(=O)C(c2ccncc2)(c2cccc(-c3cccc(OC(F)(F)F)c3)c2)N=C1N (stereo not drawn) [Example 54],208 to 210 °C,6.00 to 6.96,
CN1C(=O)C(c2ccncc2)(c2cccc(-c3cccc(C#N)c3)c2)N=C1N (stereo not drawn) [Example 55],,7.00 to 8.00,
CN1C(=O)C(c2cccc(-c3cccnc3F)c2)(c2ccncc2F)N=C1N (stereo not drawn) [Example 58],237 to 238 °C,7.00 to 8.00,
CN1C(=O)C(c2ccncc2)(c2ccc(F)c(-c3cccnc3F)c2)N=C1N (stereo not drawn) [Example 59],218 to 220 °C,7.00 to 8.00,
Cc1cc(C2(c3cccc(-c4cccnc4)c3)N=C(N)N(C)C2=O)ccn1 (stereo not drawn) [Example 60],,7.00 to 8.00,
Cc1cc(C2(c3cccc(-c4cncnc4)c3)N=C(N)N(C)C2=O)ccn1 (stereo not drawn) [Example 61],,7.00 to 8.00,
Cc1cc(C2(c3cccc(-c4cc(F)ccc4F)c3)N=C(N)N(C)C2=O)ccn1 (stereo not drawn) [Example 62],161 to 163 °C,7.00 to 8.00,
CCc1cc(C2(c3cccc(-c4cccnc4)c3)N=C(N)N(C)C2=O)ccn1 (stereo not drawn) [Example 63],217 to 219 °C,7.00 to 8.00,
CCc1cc(C2(c3cccc(-c4cc(F)ccc4F)c3)N=C(N)N(C)C2=O)ccn1 (stereo not drawn) [Example 65],188 to 192 °C,,
Cc1cc(C2(c3cccc(-c4cnccn4)c3)N=C(N)N(C)C2=O)ccn1 (stereo not drawn) [Example 66],138 to 141 °C,7.00 to 8.00,
CCc1cc(C2(c3cccc(-c4cnccn4)c3)N=C(N)N(C)C2=O)ccn1 (stereo not drawn) [Example 67],138 to 140 °C,7.00 to 8.00,
CN1C(=O)C(c2ccncc2)(c2cccc(OCC3CC3)c2)N=C1N (stereo not drawn) [Example 71],200 to 202 °C,6.00 to 6.96,
CCc1cc(C2(c3cccc(OCC4CC4)c3)N=C(N)N(C)C2=O)cc(CC)n1 (stereo not drawn) [Example 72],68 to 70 °C,6.00 to 6.96,
Cc1cc(C2(c3cccc(-c4cccnc4)c3)N=C(N)N(C)C2=O)cc(C)n1 (stereo not drawn) [Example 74],176 to 180 °C,6.00 to 6.96,
Cc1cc(C2(c3cccc(-c4cncnc4)c3)N=C(N)N(C)C2=O)cc(C)n1 (stereo not drawn) [Example 75],,6.00 to 6.96,

SMILES,melting point,pIC50 [1],IC50 [1]
Cc1cc(C2(c3cccc(-c4cc(F)ccc4F)c3)N=C(N)N(C)C2=O)cc(C)n1 (stereo not drawn) [Example 76],184 to 190 °C,6.00 to 6.96,
CCc1cc(C2(c3cccc(-c4cccnc4)c3)N=C(N)N(C)C2=O)cc(C)n1 (stereo not drawn) [Example 83],135 to 139 °C,,0.11 to 1 µM
CCc1cc(C2(c3cccc(-c4cncnc4)c3)N=C(N)N(C)C2=O)cc(C)n1 (stereo not drawn) [Example 84],,6.00 to 6.96,
CCc1cc(C2(c3cccc(-c4cc(F)ccc4F)c3)N=C(N)N(C)C2=O)cc(C)n1 (stereo not drawn) [Example 85],114 to 117 °C,,0.11 to 1 µM
CCc1cc(C2(c3cccc(-c4cnccn4)c3)N=C(N)N(C)C2=O)cc(C)n1 (stereo not drawn) [Example 86],130 to 134 °C,,0.11 to 1 µM
CC(C)c1cc(C2(c3cccc(-c4cncnc4)c3)N=C(N)N(C)C2=O)ccn1 (stereo not drawn) [Example 87],,7.00 to 8.00,
CN1C(=O)C(c2cccc(-c3cccnc3)c2)(c2ccnc(Cl)c2)N=C1N (stereo not drawn) [Example 89],223 to 225 °C,,0.01 to 0.1 µM
CCc1cc(C2(c3cccc(-c4cncnc4)c3)N=C(N)N(C)C2=O)cc(CC)n1 (stereo not drawn) [Example 91],,7.00 to 8.00,
CCc1cc(C2(c3cccc(-c4ccc(F)nc4)c3)N=C(N)N(C)C2=O)cc(CC)n1 (stereo not drawn) [Example 93],,,0.11 to 1 µM
COc1ncc(C2(c3cccc(-c4cncnc4)c3)N=C(N)N(C)C2=O)c(OC)n1 (stereo not drawn) [Example 97],,,> 1 µM
COc1ncc(C2(c3cccc(-c4cccnc4F)c3)N=C(N)N(C)C2=O)c(OC)n1 (stereo not drawn) [Example 98],,,0.11 to 1 µM
Cc1cc(C2(c3cccc(-c4cnccn4)c3)N=C(N)N(C)C2=O)cc(C)n1 (stereo not drawn) [Example 101],,,0.11 to 1 µM
Cc1cc(C2(c3cccc(-c4cncnc4)c3)N=C(N)N(C)C2=O)cc[n+]1[O-] (stereo not drawn) [Example 102],181 to 186 °C,,
CCc1cc([C@@]2(c3cccc(-c4cncnc4)c3)N=C(N)N(C)C2=O)cc(CC)n1 [Example 103A],,< 6.00,
CCc1cc([C@]2(c3cccc(-c4cncnc4)c3)N=C(N)N(C)C2=O)cc(CC)n1 [Example 103B],,7.00 to 8.00,
"CCc1cc([C@@]2(c3cccc(-c4ccc(F)nc4)c3)N=C(N)N(C)C2=O)cc(CC)n1 [Example 108A, (5R)-2-Amino-5-(2,6-diethylpyridin-4-yl)-5-[3-(6-fluoropyridin-3-yl)phenyl]-3-methyl-3,5-dihydro-4H-imidazol-4-one]",,,> 1 µM
"CCc1cc([C@]2(c3cccc(-c4ccc(F)nc4)c3)N=C(N)N(C)C2=O)cc(CC)n1 [Example 108B, (5S)-2-Amino-5-(2,6-diethylpyridin-4-yl)-5-[3-(6-fluoropyridin-3-yl)phenyl]-3-methyl-3,5-dihydro-4H-imidazol-4-one]",,,0.01 to 0.1 µM
"COc1ccc(C2(c3ccnc(-c4ccccc4)c3)N=C(N)N(C)C2=O)cc1C (stereo not drawn) [Example 109, 2-Amino-5-(4-methoxy-3-methylphenyl)-3-methyl-5-(2-phenylpyridin-4-yl)-3,5-dihydro-4H-imidazol-4-one]",,,0.11 to 1 µM
"CN1C(=O)[C@](c2ccncc2)(c2ccc(F)c(-c3cccnc3F)c2)N=C1N [Example 113A, (5R)-2-amino-5-[4-fluoro-3-(2-fluoropyridin-3-yl)phenyl]-3-methyl-5-pyridin-4-yl-3,5-dihydro-4H-imidazol-4-one]",,,> 1 µM
"CN1C(=O)[C@@](c2ccncc2)(c2ccc(F)c(-c3cccnc3F)c2)N=C1N [Example 113B, (5S)-2-amino-5-[4-fluoro-3-(2-fluoropyridin-3-yl)phenyl]-3-methyl-5-pyridin-4-yl-3,5-dihydro-4H-imidazol-4-one]",,,> 1 µM
